Source: patent US12302902B2, “Antimicrobial compositions, including antimicrobial hydrogels, effective against mature biofilms” (Cormedix Inc., priority 2017, dated 2025)

Experiments:
Microbes = settings: cited from earlier work
P. aeruginosa = settings: cited from earlier work
[1] = test system: Pseudomonas aeruginosa (PAO1) biofilm; assay: Ex vivo biofilm porcine skin explant model, bacterial load after treatment with hydrogel; assay type: cell-based; settings: 3 day cultured PA01 explants, treated with 1 ml solution, cell count Day 4

O=S1(=O)CCN(CN2CCS(=O)(=O)NC2)CN1 [Taurolidine, bis(1,1-dioxoperhydro-1,2,4-thiadiazinyl-4)-methane]
destruction time in vitro (Microbes): 30 min

NC[C@H]1O[C@H](O[C@H]2[C@H](O)[C@@H](O[C@H]3O[C@H](CO)[C@@H](O)[C@H](N)[C@H]3O)[C@H](N)C[C@@H]2N)[C@H](N)C[C@@H]1O [tobramycin]
reduction of biofilm cell counts (P. aeruginosa; P. aeruginosa biofilm, tobramycin levels far in excess of the MIC): approximately 2 logs
decrease in planktonic cells (P. aeruginosa; P. aeruginosa planktonic cells, same dosage): > 8 log

gentamicin
PA01 AVG (average CFU/ml of sonicated explant bacterial suspension) [1]: 3.45E+07 CFU/ml
